Assays:
human MALT-1 protein = human MALT-1 protein (Homo sapiens (Human), UniProt Q9UDY8); assay: MALT-1 Biochemical Assay (Quench-FRET enzyme assay); conditions: human MALT-1 6 nM, substrate 2 μM, 40 min preincubation
Excerpt: A Quenched Fluorescence Resonance Energy Transfer (Quench-FRET) enzyme assay was used to test the ability of exemplary MALT-1 inhibitors Example 1 to Example 39 to inhibit the cleavage of a MALT1 specific quenched fluorescent substrate of sequence [TAMRA-PEG2-Leu-Val-Ser-Arg-Gly-Ala-Ala-Ser-PEG2-K(QSY7) by human MALT-1 protein; where TAMRA is 6-carboxytetramethylrhodamine, PEG2 is 2-(2-(2-aminoethoxy)ethoxyamide linker, QSY7 is a non-fluorescent quenching dye (Thermo-Fisher catalog #Q10193). The assay was performed by pre-dispensing compounds into 384 well Proxiplates™ (PE 6008289). Human MALT-1 (6 nM) was prepared using the assay buffer (25 mM HEPES pH 7.5, 1 mM ethylenediaminetetraacetic acid, 0.8 M sodium citrate, 0.005% Bovine serum albumin (BSA), 2 mM dithiothreitol (DTT)) and added to the compound plates. The plates were incubated 40 minutes at room temperature. The reaction was carried out by adding the substrate (2 μM) to the plates and incubating for 60 minutes at room temperature. A fluorescence readout was then measured using a PE EnVision® reader (Ex.535/Em.590). […] EC50 is defined as the half maximal effective concentration of compound to inhibit MALT-1 protease activity.

OCI-LY3 IL6 = assay: MALT-1 Cell IL-6 AlphaLISA Assay; assay type: cell-based; conditions: Homo sapiens; OCI-LY3 cells, 48 hours incubation; read-out: OCI-LY3 IL6 48 hour Inhibition EC50
Experimental: The following MALT-1 Cell Interleukin-6 (IL-6) AlphaLISA assay was conducted using a Perkin Elmer® IL-6 AlphaLISA® detection kit (PE AL223). The IL-6 detection assay is a homogeneous immunoassay that detects human IL-6 present in the cell culture medium in the MALT-1 dependent human ABC-DLBCL cell line, OCI-LY3. Compounds were pre-dispensed into Black 384w microtiter plates (Greiner, 781090) from 30 μM to 1.5 nM. Viable OCI-LY3 cells were then seeded on top of compounds at a seeding density of 50,000 cells/mL. Plates were then placed into 37° C. incubators for 48 hours. After 48 hours incubation, 2 μL of cell medium from each well was transferred into white ProxiPlates™ (PE 6008289). A fresh mix of AlphaLISA Acceptor beads (10 μg/mL) and Biotinylated IL-6 Antibody (1 nM) was made in AlphaLISA Immunoassay buffer and added to all wells (4 μL). The plates were incubated for 60 minutes at room temperature. Streptavidin donor beads (40 μg/mL) were prepared using the assay buffer and added to all wells (5 The plates were incubated for 30 minutes at room temperature and read using PE EnVision® reader. Results are shown in Table 3.

male Sprague-Dawley rats = assay: Cardiovascular Assay in anesthetized rats; assay type: in vivo; conditions: rat; for HR (%) / MAP (%) / dP/dt@50 (%): change from vehicle; for Drug (μg/mL SEM): plasma at end of infusion
Experimental: The following cardiovascular assay was conducted using male Sprague-Dawley rats that were anesthetized with Inactin (thiobutabarbital), instrumented (catheterized both femoral artery and vein; catheterize left ventricular) and allowed to stabilize. Following a 30-minute baseline period, each compound was infused at low, medium, and high doses/30 minutes. Plasma samples were taken at the end of each dose infusion. If, at any point, the mean arterial pressure (MAP) of an animal decreased below 70 mmHg, the infusion was immediately stopped, a final blood sample was taken, and hemodynamic data for that animal was removed from the group average for all subsequent time points. A 15% change from vehicle for MAP or heart rate (HR), respectively, is considered biologically relevant. A 20% change from vehicle for dP/dt@50 is considered biologically relevant.

Chain of human MALT-1 protein (Q9UDY8 whole entry): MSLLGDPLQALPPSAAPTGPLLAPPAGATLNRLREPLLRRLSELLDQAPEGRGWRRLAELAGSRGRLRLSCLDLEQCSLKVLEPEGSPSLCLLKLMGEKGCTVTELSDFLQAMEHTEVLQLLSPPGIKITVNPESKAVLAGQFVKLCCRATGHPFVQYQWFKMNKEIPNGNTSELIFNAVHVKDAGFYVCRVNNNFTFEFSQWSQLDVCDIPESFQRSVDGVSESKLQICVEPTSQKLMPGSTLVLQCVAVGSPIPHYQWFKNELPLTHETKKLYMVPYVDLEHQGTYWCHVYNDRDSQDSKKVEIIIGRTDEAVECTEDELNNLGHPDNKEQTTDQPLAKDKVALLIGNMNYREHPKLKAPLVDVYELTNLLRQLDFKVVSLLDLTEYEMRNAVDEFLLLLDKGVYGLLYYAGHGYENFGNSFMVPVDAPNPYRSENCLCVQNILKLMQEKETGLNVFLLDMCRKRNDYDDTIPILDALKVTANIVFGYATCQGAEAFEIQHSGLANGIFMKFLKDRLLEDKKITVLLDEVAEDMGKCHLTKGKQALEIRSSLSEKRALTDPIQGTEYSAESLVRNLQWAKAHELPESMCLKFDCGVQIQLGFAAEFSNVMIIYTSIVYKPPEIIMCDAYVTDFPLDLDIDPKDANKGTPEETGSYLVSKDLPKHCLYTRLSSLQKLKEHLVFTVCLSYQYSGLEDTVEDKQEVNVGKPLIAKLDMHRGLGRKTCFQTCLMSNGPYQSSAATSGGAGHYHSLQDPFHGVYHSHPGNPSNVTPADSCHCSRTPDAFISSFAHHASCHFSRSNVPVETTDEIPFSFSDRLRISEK

Row | EC50 (human MALT-1 protein) [nM] | EC50 (OCI-LY3 IL6) [nM] | Compound | HR (%) (male Sprague-Dawley rats; dose 3 mg/kg) | MAP (%) (male Sprague-Dawley rats; dose 3 mg/kg) | dP/dt@50 (%) (male Sprague-Dawley rats; dose 3 mg/kg) | HR (%) (male Sprague-Dawley rats; dose 10 mg/kg) | MAP (%) (male Sprague-Dawley rats; dose 10 mg/kg) | dP/dt@50 (%) (male Sprague-Dawley rats; dose 10 mg/kg) | HR (%) (male Sprague-Dawley rats; dose 30 mg/kg) | MAP (%) (male Sprague-Dawley rats; dose 30 mg/kg) | dP/dt@50 (%) (male Sprague-Dawley rats; dose 30 mg/kg) | Drug (μg/mL SEM) (male Sprague-Dawley rats; dose 3 mg/kg) [µg/mL] | Drug (μg/mL SEM) (male Sprague-Dawley rats; dose 10 mg/kg) [µg/mL] | Drug (μg/mL SEM) (male Sprague-Dawley rats; dose 30 mg/kg) [µg/mL]
1 | 92 | 580 | CO[C@H](c1c(Nc2ccc([C@H](N(C)C(=O)C3CCS(=O)(=O)CC3)C(F)(F)F)cc2F)cnc2sc(C)nc12)C(F)F (single isomer, unassigned) [Example 17] |  |  |  |  |  |  |  |  |  |  |  | 
2 |  |  | CO[C@@H](C)c1c(Nc2ccc([C@H](N(C)C(=O)C3CCS(=O)(=O)CC3)C(F)(F)F)cc2)cnc2cc(Cl)nn12 [Comparative Example A, N-{(1S)-1-[4-({2-chloro-7-[(1 S)-1-methoxyethyl]pyrazolo [1,5-a]pyrimidin-6-yl}amino)phenyl]-2,2,2-trifluoroethyl}-N-methyl-1,1-dioxo-1λ^6-thiane-4-carboxamide, reference compound] | −7 | −10 | −4 | −11 | −14 | −7 | −18 | −22 | −6 | 1.45 ± 0.06 | 5.15 ± 0.32 | 12.91 ± 1.71
3 | 106 | 470 | Cc1nc2c(C(C)C(F)F)c(Nc3ccc([C@H](N(C)C(=O)C4CCS(=O)(=O)CC4)C(F)(F)F)cc3)cnc2s1 (stereo partly drawn) [Example 16, N-R[(1S)-1-(4-{ [7-(1,1-difluoropropan-2-yl)-2-methyl[1,3]thiazolo[5,4-b]pyridin-6-yl]amino}phenyl)-2,2,2-trifluoroethyl]-N-methyl-1,1-dioxo-1λ^6-thiane-4-carboxamide] |  |  |  |  |  |  |  |  |  |  |  | 

— patent publication US20230312601A1, “THIAZOLO[5,4-B]PYRIDINE MALT-1 INHIBITORS” (AbbVie Inc., priority 2022, published 2023)
